Where “and” joins values, the source holds several entries; their conditions need not be identical. Equal entries are not always repeated. Toxic doses and inconclusive results are not listed. Peptide text beside a SMILES is read from it. * marks the point of attachment. Cbz = O=C(OCc1ccccc1)*
System: P388 leukemia ip, CD2F1 mice, survival T/C
Test: NCI In Vivo Anticancer Drug Screen. Data for tumor model P388 Leukemia (intraperitoneal) in CD2F1 (CDF1) mice
Details: endpoint: median survival time, higher = longer survival
Method in brief: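 Mice carrying the transplanted tumor received test compound or vehicle. Survival was recorded in each group, and the value is the treated-group measurement divided by that of the vehicle-treated control group.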

[1] = dose: 60.0 mg/kg/injection, schedule: Q01DX005 (ip), vehicle: saline
[2] = dose: 120.0 mg/kg/injection, schedule: Q01DX005 (ip), vehicle: saline
[3] = dose: 240.0 mg/kg/injection, schedule: Q01DX005 (ip), vehicle: saline
[4] = dose: 50.0 mg/kg/injection, schedule: Q01DX005 (ip), vehicle: saline
[5] = dose: 100.0 mg/kg/injection, schedule: Q01DX005 (ip), vehicle: saline
[6] = dose: 200.0 mg/kg/injection, schedule: Q01DX005 (ip), vehicle: saline
[7] = dose: 12.5 mg/kg/injection, schedule: Q01DX009 (ip), vehicle: saline
[8] = dose: 6.25 mg/kg/injection, schedule: Q01DX009 (ip), vehicle: saline with Tween-80
[9] = dose: 12.5 mg/kg/injection, schedule: Q01DX009 (ip), vehicle: saline with Tween-80
[10] = dose: 25.0 mg/kg/injection, schedule: Q01DX009 (ip), vehicle: saline with Tween-80
[11] = dose: 100.0 mg/kg/injection, schedule: Q04DX003 (ip), vehicle: saline with Tween-80
[12] = dose: 200.0 mg/kg/injection, schedule: Q04DX003 (ip), vehicle: saline with Tween-80
[13] = dose: 400.0 mg/kg/injection, schedule: Q04DX003 (ip), vehicle: saline with Tween-80
[14] = dose: 50.0 mg/kg/injection, schedule: Q01DX009 (ip), vehicle: saline
[15] = dose: 100.0 mg/kg/injection, schedule: Q01DX009 (ip), vehicle: saline
[16] = dose: 200.0 mg/kg/injection, schedule: Q01DX009 (ip), vehicle: saline
[17] = dose: 50.0 mg/kg/injection, schedule: Q01DX009 (ip), vehicle: saline with Tween-80
[18] = dose: 0.63 mg/kg/injection, schedule: Q04DX003 (ip), vehicle: saline
[19] = dose: 1.25 mg/kg/injection, schedule: Q04DX003 (ip), vehicle: saline
[20] = dose: 2.5 mg/kg/injection, schedule: Q04DX003 (ip), vehicle: saline
[21] = dose: 50.0 mg/kg/injection, schedule: Q01DX005 (ip), vehicle: saline with Tween-80
[22] = dose: 100.0 mg/kg/injection, schedule: Q01DX005 (ip), vehicle: saline with Tween-80

For `CCOC(=O)C1N=C(OCC)C(C)N=C1OCC` (centres undefined), the T/C [1] was 101 % of control, the T/C [2] was 102 % of control and the T/C [3] was 100 % of control.

For `CN1C(=O)CCC1(O)C1SCCCS1` (centres undefined), the T/C [4] was 102 % of control, the T/C [5] was 100 % of control and the T/C [6] was 102 % of control.

In the case of `CCCCCCCCCCCCCCCC[N+]1(CC)CCOCC1`, the T/C (dose: 1.56 mg/kg/injection, schedule: Q01DX009 (ip), vehicle: saline) was 105 % of control and 100 % of control, the T/C (dose: 3.12 mg/kg/injection, schedule: Q01DX009 (ip), vehicle: saline) was 99 % of control and the T/C [7] was 115 % of control and 105 % of control.

`CCOC(=O)N1C(C)=CC=C/C1=C/C=C(C#N)C#N` was tested, and the T/C (dose: 100.0 mg/kg/injection, schedule: Q01DX001 (ip), vehicle: saline with Tween-80) was 94 % of control, the T/C (dose: 200.0 mg/kg/injection, schedule: Q01DX001 (ip), vehicle: saline with Tween-80) was 90 % of control and the T/C (dose: 400.0 mg/kg/injection, schedule: Q01DX001 (ip), vehicle: saline with Tween-80) was 89 % of control.

With `CC1(C)OC(=O)NC1c1ccccc1` (centres undefined) the T/C [8] was 100 % of control, the T/C [9] was 99 % of control and the T/C [10] was 117 % of control.

For `CCCC(=O)Oc1c(OC)cc(O)c2c(=O)c(O)c(-c3ccc(OC)cc3)oc12`, the T/C (dose: 14.0 mg/kg/injection, schedule: Q01DX005 (ip), vehicle: Klucel (hydroxypropylcellulose) (HPC)) was 89 % of control, the T/C (dose: 56.0 mg/kg/injection, schedule: Q01DX005 (ip), vehicle: Klucel (hydroxypropylcellulose) (HPC)) was 87 % of control and the T/C (dose: 112.0 mg/kg/injection, schedule: Q01DX005 (ip), vehicle: Klucel (hydroxypropylcellulose) (HPC)) was 108 % of control.

For `CC(=O)Nc1ccc(NC(C)=O)c2c1C(=O)c1ccccc1C2=O`, the T/C [11] was 100 % of control, the T/C [12] was 100 % of control and the T/C [13] was 100 % of control.

`CC(=O)Oc1ccc(C2c3cc(OC(C)=O)c(OC(C)=O)cc3CC3C(=O)OCC32)cc1OC(C)=O` (centres undefined) was tested, and the T/C (dose: 50.0 mg/kg/injection, schedule: Q01DX005 (ip), vehicle: distilled water + alcohol) was 102 % of control, the T/C (dose: 100.0 mg/kg/injection, schedule: Q01DX005 (ip), vehicle: distilled water + alcohol) was 96 % of control and the T/C (dose: 200.0 mg/kg/injection, schedule: Q01DX005 (ip), vehicle: distilled water + alcohol) was 100 % of control.

For `C[SiH](C)c1ccc(Cl)cc1`, the T/C [14] was 99 % of control, the T/C [15] was 102 % of control and the T/C [16] was 100 % of control.

With `CCC[CH2][Sn]([CH2]CCC)([S]CC(=O)OCc1ccccc1)[S]CC(=O)OCc1ccccc1` the T/C (dose: 12.5 mg/kg/injection, schedule: Q01DX001 (ip), vehicle: Klucel (hydroxypropylcellulose) (HPC)) was 108 % of control, the T/C (dose: 25.0 mg/kg/injection, schedule: Q01DX001 (ip), vehicle: Klucel (hydroxypropylcellulose) (HPC)) was 116 % of control and the T/C (dose: 50.0 mg/kg/injection, schedule: Q01DX001 (ip), vehicle: Klucel (hydroxypropylcellulose) (HPC)) was 108 % of control.

In the case of `Nc1cccc2c1C(=O)c1ccc(C(=O)O)cc1C2=O`, the T/C (dose: 50.0 mg/kg/injection, schedule: Q01DX005 (ip), vehicle: Klucel (hydroxypropylcellulose) (HPC)) was 101 % of control and the T/C (dose: 100.0 mg/kg/injection, schedule: Q01DX005 (ip), vehicle: Klucel (hydroxypropylcellulose) (HPC)) was 104 % of control.

`CCCCNC(C)(C)C(SSSC(c1ccco1)C(C)(C)NCCCC)c1ccco1` (centres undefined) was tested, and the T/C [7] was 109 % of control, the T/C (dose: 25.0 mg/kg/injection, schedule: Q01DX009 (ip), vehicle: saline) was 113 % of control and the T/C [14] was 113 % of control. The T/C (dose: 66.0 mg/kg/injection, schedule: Q04DX003 (ip), vehicle: saline) was 100 % of control, the T/C (dose: 100.0 mg/kg/injection, schedule: Q04DX003 (ip), vehicle: saline) was 118 % of control and the T/C (dose: 150.0 mg/kg/injection, schedule: Q04DX003 (ip), vehicle: saline) was 109 % of control.

With `C1=C\CCCCCCCC/1` the T/C (dose: 1.56 mg/kg/injection, schedule: Q01DX009 (ip), vehicle: saline with Tween-80) was 100 % of control, the T/C (dose: 3.13 mg/kg/injection, schedule: Q01DX009 (ip), vehicle: saline with Tween-80) was 91 % of control and the T/C [8] was 100 % of control. The T/C (dose: 6.25 mg/kg/injection, schedule: Q04DX003 (ip), vehicle: saline) was 109 % of control, the T/C (dose: 12.5 mg/kg/injection, schedule: Q04DX003 (ip), vehicle: saline) was 100 % of control and the T/C (dose: 25.0 mg/kg/injection, schedule: Q04DX003 (ip), vehicle: saline) was 104 % of control.

With `CCOC(=O)C(C[N+](=O)[O-])(NC(=O)c1ccccc1)C(=O)OCC` the T/C [1] was 104 % of control, the T/C [2] was 105 % of control and the T/C [3] was 99 % of control.

`CCCCCCCCCCCCC1OCN2CCCCC12` (centres undefined) was tested, and the T/C [4] was 106 % of control, the T/C [5] was 100 % of control and the T/C [6] was 113 % of control.

With `C/C(=N\OC(=O)c1c(-c2c(Cl)cccc2Cl)noc1C)c1ccccc1O` the T/C [14] was 91 % of control, the T/C [15] was 94 % of control and the T/C [16] was 93 % of control.

For `O=C(O)C(=O)O.[NH-]C1CCCC1[NH-].[Pt+2]` (centres undefined), the T/C (dose: 12.5 mg/kg/injection, schedule: Q04DX002 (ip), vehicle: saline with Tween-80) was 166 % of control and the T/C (dose: 12.5 mg/kg/injection, schedule: Q04DX002 (ip), vehicle: saline) was 176 % of control.

`NC(=O)Nc1n[nH]c(-c2ccccc2)n1` was tested, and the T/C [11] was 90 % of control, the T/C [12] was 90 % of control and the T/C [13] was 90 % of control.

In the case of `COc1cc2c(cc1OC)-c1[nH]ncc1CC2`, the T/C [17] was 101 % of control, the T/C (dose: 100.0 mg/kg/injection, schedule: Q01DX009 (ip), vehicle: saline with Tween-80) was 101 % of control and the T/C (dose: 200.0 mg/kg/injection, schedule: Q01DX009 (ip), vehicle: saline with Tween-80) was 106 % of control.

In the case of `COc1cc(N(CCCl)CCCl)c(OC)cc1/C=N\Nc1nncn1N`, the T/C (dose: 0.25 mg/kg/injection, schedule: Q01DX009 (ip), vehicle: saline) was 95 % of control, the T/C (dose: 0.5 mg/kg/injection, schedule: Q01DX009 (ip), vehicle: saline) was 104 % of control and the T/C [18] was 100 % of control. For the same compound, the T/C (dose: 1.25 mg/kg/injection, schedule: Q01DX009 (ip), vehicle: saline) was 154 % of control, the T/C [19] was 100 % of control and the T/C (dose: 2.5 mg/kg/injection, schedule: Q01DX009 (ip), vehicle: saline) was 154 % of control. The T/C [20] was 107 % of control, the T/C (dose: 5.0 mg/kg/injection, schedule: Q01DX009 (ip), vehicle: saline) was 186 % of control and the T/C (dose: 5.0 mg/kg/injection, schedule: Q04DX003 (ip), vehicle: saline) was 123 % of control.

`c1ccc([P+](c2ccccc2)(c2ccccc2)c2ccccc2)cc1` was tested, and the T/C [18] was 100 % of control, the T/C [19] was 118 % of control and the T/C [20] was 122 % of control. For the same compound, the T/C (dose: 3.3 mg/kg/injection, schedule: Q04DX003 (ip), vehicle: saline) was 122 % of control.

In the case of `CCC(C)C(NC(=O)C(Cc1ccc(O)cc1)NC(=O)OCc1ccccc1)C(=O)OC` (stereo not drawn) (Cbz-Tyr-Ile-OMe; configuration not given here), the T/C [21] was 106 % of control, the T/C [22] was 92 % of control and the T/C (dose: 200.0 mg/kg/injection, schedule: Q01DX005 (ip), vehicle: saline with Tween-80) was 97 % of control.

In the case of `Nc1ncnc2c1c(-c1ccc(Cl)cc1)cn2-c1ccccc1`, the T/C (dose: 60.0 mg/kg/injection, schedule: Q01DX005 (ip), vehicle: saline with Tween-80) was 100 % of control, the T/C (dose: 120.0 mg/kg/injection, schedule: Q01DX005 (ip), vehicle: saline with Tween-80) was 96 % of control and the T/C (dose: 240.0 mg/kg/injection, schedule: Q01DX005 (ip), vehicle: saline with Tween-80) was 90 % of control.

With `O=C(S)CC1(O)CCCCC1` the T/C (dose: 100.0 mg/kg/injection, schedule: Q04DX003 (ip), vehicle: Klucel (hydroxypropylcellulose) (HPC)) was 99 % of control, the T/C (dose: 200.0 mg/kg/injection, schedule: Q04DX003 (ip), vehicle: Klucel (hydroxypropylcellulose) (HPC)) was 100 % of control and the T/C (dose: 400.0 mg/kg/injection, schedule: Q04DX003 (ip), vehicle: Klucel (hydroxypropylcellulose) (HPC)) was 96 % of control.

`CC(CN=Cc1ccccc1O)N=Cc1ccccc1O.[Zn]` (centres undefined) was tested, and the T/C [8] was 103 % of control, the T/C [9] was 111 % of control and the T/C [10] was 93 % of control and 97 % of control. The T/C [17] was 99 % of control.

For `CCCCC(CCCC)=NO`, the T/C [21] was 108 % of control and the T/C [22] was 100 % of control.
